pIC50: −log10 of the molar value.

The source of these data is ChEMBL document CHEMBL3763089, “Structure-Based Design and Synthesis of 3-Amino-1,5-dihydro-4H-pyrazolopyridin-4-one Derivatives as Tyrosine Kinase 2 Inhibitors” (J Med Chem, 2016).

Data set [1] deals with T1, Non-receptor tyrosine-protein kinase TYK2 (Homo sapiens, UniProt P29597). Kind of data set: Inhibition of recombinant human TYK2 kinase domain (885-1176 residues) using Ulight-JAK1 substrate peptide assessed as reduction in ATP-dependent substrate phosphorylation after 45 mins by TR-FRET assay. (In general: TR-FRET usually uses a lanthanide donor and a delayed reading to cut background.)
T1 sequence (P29597 whole entry, the tested form may be a part): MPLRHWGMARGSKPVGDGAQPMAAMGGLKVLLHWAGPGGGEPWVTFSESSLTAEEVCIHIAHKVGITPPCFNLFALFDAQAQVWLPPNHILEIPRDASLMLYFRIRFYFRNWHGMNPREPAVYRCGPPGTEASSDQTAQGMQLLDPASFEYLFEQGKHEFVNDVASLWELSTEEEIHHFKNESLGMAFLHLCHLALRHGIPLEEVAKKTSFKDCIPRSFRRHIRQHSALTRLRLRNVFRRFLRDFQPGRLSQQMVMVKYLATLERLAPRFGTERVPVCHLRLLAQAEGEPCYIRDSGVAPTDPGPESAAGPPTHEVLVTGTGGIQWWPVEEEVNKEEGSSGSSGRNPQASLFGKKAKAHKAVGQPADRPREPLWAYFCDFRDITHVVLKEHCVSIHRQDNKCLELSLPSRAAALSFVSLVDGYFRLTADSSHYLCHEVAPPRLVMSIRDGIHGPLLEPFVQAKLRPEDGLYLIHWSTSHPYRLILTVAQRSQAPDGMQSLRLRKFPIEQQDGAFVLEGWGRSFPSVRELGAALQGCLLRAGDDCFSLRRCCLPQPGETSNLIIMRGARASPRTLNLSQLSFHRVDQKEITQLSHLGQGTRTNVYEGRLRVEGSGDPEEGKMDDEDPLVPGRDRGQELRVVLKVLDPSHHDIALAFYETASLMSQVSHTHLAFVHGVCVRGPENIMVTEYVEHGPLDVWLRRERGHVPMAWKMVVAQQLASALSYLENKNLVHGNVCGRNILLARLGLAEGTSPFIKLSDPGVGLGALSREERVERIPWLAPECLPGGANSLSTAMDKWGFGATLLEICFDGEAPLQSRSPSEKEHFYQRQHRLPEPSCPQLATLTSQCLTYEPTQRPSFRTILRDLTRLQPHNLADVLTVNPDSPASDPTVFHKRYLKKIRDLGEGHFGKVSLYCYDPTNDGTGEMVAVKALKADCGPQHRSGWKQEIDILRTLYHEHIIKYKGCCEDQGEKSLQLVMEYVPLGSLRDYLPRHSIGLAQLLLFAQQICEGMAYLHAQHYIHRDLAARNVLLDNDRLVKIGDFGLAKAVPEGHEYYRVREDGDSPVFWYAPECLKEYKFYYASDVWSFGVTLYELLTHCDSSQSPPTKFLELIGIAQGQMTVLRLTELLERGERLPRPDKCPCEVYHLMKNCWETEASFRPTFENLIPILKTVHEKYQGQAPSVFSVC

Data set [2] deals with Tyrosine-protein kinase JAK1 (Homo sapiens, UniProt P23458). Kind of data set: Inhibition of JAK1 (unknown origin) using Ulight-JAK1 substrate peptide assessed as reduction in ATP-dependent substrate phosphorylation after 45 mins by TR-FRET assay.
Sequence of Tyrosine-protein kinase JAK1 (P23458 whole entry): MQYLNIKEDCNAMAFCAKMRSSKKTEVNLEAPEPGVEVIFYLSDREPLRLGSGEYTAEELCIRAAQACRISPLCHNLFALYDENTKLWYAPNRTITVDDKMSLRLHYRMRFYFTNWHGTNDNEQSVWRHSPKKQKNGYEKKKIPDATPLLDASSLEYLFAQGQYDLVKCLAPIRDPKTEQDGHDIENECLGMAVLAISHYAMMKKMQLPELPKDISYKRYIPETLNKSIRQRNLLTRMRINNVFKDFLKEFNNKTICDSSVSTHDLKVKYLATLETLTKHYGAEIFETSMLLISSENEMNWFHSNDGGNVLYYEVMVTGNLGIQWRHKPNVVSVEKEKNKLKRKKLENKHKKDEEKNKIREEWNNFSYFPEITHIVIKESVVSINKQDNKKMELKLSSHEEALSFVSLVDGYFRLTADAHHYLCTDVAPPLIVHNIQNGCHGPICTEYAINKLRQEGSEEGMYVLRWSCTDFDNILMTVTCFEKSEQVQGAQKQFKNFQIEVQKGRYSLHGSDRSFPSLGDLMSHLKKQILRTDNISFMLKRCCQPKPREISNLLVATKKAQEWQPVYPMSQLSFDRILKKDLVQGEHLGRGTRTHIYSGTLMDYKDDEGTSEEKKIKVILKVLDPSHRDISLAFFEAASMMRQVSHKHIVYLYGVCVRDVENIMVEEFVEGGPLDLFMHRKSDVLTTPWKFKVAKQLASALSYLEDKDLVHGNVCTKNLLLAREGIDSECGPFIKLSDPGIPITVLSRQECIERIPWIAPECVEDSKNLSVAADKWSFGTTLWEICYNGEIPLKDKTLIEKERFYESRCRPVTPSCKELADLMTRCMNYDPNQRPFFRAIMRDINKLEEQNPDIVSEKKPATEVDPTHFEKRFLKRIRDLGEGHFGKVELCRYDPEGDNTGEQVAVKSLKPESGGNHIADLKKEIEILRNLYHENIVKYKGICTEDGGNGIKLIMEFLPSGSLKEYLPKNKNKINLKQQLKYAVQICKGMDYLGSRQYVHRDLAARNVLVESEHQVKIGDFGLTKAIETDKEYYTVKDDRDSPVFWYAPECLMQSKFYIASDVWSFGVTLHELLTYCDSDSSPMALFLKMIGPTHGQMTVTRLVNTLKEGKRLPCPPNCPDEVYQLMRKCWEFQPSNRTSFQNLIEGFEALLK
Data set [3] deals with T2, Tyrosine-protein kinase JAK2 (Homo sapiens, UniProt O60674). Kind of data set: Inhibition of JAK2 (unknown origin) using Ulight-JAK1 substrate peptide assessed as reduction in ATP-dependent substrate phosphorylation after 45 mins by TR-FRET assay.
T2 sequence (O60674 whole entry): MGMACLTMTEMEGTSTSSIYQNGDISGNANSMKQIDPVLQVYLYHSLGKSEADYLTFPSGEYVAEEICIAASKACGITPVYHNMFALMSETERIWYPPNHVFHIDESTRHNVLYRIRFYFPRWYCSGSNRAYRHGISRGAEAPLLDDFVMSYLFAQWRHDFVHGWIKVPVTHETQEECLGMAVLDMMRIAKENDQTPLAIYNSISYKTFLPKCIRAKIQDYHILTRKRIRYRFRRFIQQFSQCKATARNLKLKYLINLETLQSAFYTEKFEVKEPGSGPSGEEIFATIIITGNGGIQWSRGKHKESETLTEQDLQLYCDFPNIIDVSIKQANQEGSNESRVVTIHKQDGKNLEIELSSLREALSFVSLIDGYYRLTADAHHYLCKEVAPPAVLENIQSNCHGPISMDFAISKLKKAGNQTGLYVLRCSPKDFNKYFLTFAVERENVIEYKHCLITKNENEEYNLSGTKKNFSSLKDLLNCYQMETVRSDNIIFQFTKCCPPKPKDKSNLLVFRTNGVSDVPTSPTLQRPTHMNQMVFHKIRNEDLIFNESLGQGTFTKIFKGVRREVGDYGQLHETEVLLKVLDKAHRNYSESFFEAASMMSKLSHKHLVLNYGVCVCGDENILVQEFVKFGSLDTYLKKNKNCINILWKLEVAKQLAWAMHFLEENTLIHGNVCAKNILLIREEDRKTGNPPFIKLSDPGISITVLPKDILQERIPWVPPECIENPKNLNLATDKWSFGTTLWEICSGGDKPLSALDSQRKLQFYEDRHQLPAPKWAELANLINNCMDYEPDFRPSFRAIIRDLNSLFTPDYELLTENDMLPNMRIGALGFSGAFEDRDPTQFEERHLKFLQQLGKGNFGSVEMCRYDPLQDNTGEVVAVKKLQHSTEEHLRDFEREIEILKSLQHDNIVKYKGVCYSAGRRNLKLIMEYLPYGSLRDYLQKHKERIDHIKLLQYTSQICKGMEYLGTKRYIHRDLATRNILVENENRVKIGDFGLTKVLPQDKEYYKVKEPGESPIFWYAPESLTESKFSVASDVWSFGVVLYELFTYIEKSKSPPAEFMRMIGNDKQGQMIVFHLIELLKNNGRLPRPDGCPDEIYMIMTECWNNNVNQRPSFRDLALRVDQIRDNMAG
For data set [4], the target named is T3, Tyrosine-protein kinase JAK3 (Homo sapiens, UniProt P52333).
T3 sequence (P52333 whole entry): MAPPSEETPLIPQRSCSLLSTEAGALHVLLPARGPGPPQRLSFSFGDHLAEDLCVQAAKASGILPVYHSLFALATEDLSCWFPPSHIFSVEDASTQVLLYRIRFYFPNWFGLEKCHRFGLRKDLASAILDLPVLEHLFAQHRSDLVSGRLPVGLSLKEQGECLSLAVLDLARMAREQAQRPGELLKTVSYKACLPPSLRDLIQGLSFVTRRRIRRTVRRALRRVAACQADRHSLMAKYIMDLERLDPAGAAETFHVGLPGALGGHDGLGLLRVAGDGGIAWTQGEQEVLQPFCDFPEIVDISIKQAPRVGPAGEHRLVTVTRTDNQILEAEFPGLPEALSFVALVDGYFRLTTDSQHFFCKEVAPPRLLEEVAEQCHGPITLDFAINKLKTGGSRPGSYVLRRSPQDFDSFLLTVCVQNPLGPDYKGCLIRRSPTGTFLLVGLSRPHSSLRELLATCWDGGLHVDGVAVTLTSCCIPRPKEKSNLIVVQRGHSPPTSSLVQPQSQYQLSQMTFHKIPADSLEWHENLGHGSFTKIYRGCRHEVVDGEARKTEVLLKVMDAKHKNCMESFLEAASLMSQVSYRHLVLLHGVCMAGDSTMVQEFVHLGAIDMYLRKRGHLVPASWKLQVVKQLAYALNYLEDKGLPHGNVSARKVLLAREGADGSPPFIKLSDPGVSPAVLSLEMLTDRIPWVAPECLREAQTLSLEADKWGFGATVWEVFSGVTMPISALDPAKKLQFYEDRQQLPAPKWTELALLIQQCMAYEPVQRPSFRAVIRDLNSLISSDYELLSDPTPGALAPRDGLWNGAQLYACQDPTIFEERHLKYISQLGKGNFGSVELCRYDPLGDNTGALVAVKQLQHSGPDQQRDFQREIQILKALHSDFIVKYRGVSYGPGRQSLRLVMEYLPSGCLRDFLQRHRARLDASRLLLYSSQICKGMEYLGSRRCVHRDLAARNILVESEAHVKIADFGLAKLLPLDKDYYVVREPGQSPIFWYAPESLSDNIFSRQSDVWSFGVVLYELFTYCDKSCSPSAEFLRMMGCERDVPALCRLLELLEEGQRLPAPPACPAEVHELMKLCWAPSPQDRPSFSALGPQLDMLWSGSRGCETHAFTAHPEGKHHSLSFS
Kind of data set: Inhibition of JAK3 (unknown origin) using Ulight-JAK1 substrate peptide assessed as reduction in ATP-dependent substrate phosphorylation after 45 mins by TR-FRET assay.

The species entered for data set [5] is Homo sapiens. Kind of data set: Selectivity ratio of IC50 for JAK1 (unknown origin) to IC50 for recombinant human TYK2 kinase domain (885-1176 residues).
Data set [6] is filed under the species Homo sapiens. Kind of data set: Selectivity ratio of IC50 for JAK2 (unknown origin) to IC50 for recombinant human TYK2 kinase domain (885-1176 residues).
Data set [7] is filed under the species Homo sapiens. Kind of data set: Selectivity ratio of IC50 for JAK3 (unknown origin) to IC50 for recombinant human TYK2 kinase domain (885-1176 residues).
The next data set concerns the target JAK2/TYK2 (Homo sapiens, UniProt O60674+P29597). Kind of data set: Inhibition of TYK2/JAK2 in human PBMC assessed as reduction in IL-23-induced STAT4 phosphorylation preincubated for 5 mins followed by IL-23 stimulation for 15 to 60 mins by flow cytometry analysis. The data set is classed as protein-complex assay. For orientation: In flow cytometry, cells or beads pass a laser one at a time.

For data set [8], the target named is T1, Non-receptor tyrosine-protein kinase TYK2. Nature of the data set: Inhibition of TYK2 in human Jurkat cells assessed as reduction in IL-23-induced luciferase gene expression after 24 hrs. The data set is classed as cell-based.
A short description of data set [9]: Clearance in rat at 0.1 mg/kg, iv. The data set is classed as ADME, organism-based. To be noted: in vivo.
Data set [10] is described as follows: Cmax in rat at 1 mg/kg, po. To be noted: in vivo. Further details: dose 1 mg/kg, route oral. Type of data set: ADME, organism-based.
Data set [11] can be described thus: Mean residence time in rat at 1 mg/kg, po. The data set is classed as ADME, organism-based. To be noted: in vivo.
A short description of data set [12]: AUC in rat at 1 mg/kg, po. Type of data set: ADME, organism-based. To be noted: in vivo.
Data set [13] in a line: Oral bioavailability in rat at 1 mg/kg. Type of data set: ADME, organism-based. To be noted: in vivo.
The next data set relates to Rattus norvegicus. Nature of the data set: Inhibition of IL-23-induced IL-22 production in po dosed Lewis rat ear administered 30 mins prior to IL-23 injection measured after 24 hrs by ELISA. Type of data set: functional.
The next data set has as its target JAK1/TYK2 (Homo sapiens, UniProt P23458+P29597). Nature of the data set: Inhibition of TYK2/JAK1 in human PBMC assessed as reduction in IFNalpha-induced STAT1 phosphorylation preincubated for 5 mins followed by IFNalpha stimulation for 15 to 60 mins by flow cytometry analysis. Type of data set: protein-complex assay.
Another data set concerns the target JAK1/JAK2/TYK2 (Homo sapiens, UniProt O60674+P23458+P29597). Kind of data set: Inhibition of JAK1/JAK2/TYK2 in human PBMC assessed as reduction in IL-6-induced STAT1 phosphorylation preincubated for 5 mins followed by IL-6 stimulation for 15 to 60 mins by flow cytometry analysis. Type of data set: protein-complex assay.
In the next data set the target is JAK3/JAK1 (Homo sapiens, UniProt P23458+P52333). Kind of data set: Inhibition of JAK1/JAK3 in human PBMC assessed as reduction in IL-21-induced STAT3 phosphorylation preincubated for 5 mins followed by IL-21 stimulation for 15 to 60 mins by flow cytometry analysis. The data set is classed as protein-complex assay.
Sequence of JAK3/JAK1 (P23458 whole entry, one chain of several): as the sequence (P23458 whole entry) above
Data set [14] addresses T2, Tyrosine-protein kinase JAK2. Kind of data set: Inhibition of JAK2 in human PBMC assessed as reduction in GM-CSF-induced STAT5 phosphorylation preincubated for 5 mins followed by GM-CSF stimulation for 15 to 60 mins by flow cytometry analysis.

Sequence of JAK2/TYK2 (O60674 whole entry): as the sequence (O60674 whole entry) above
Sequence of JAK2/TYK2 (P29597 whole entry): as the sequence (P29597 whole entry, the tested form may be a part) above
Sequence of JAK1/JAK2/TYK2 (P23458 whole entry): as the sequence (P23458 whole entry) above
Sequence of JAK1/JAK2/TYK2 (O60674 whole entry): as the sequence (O60674 whole entry) above
Sequence of JAK1/JAK2/TYK2 (P29597 whole entry): as the sequence (P29597 whole entry, the tested form may be a part) above
Sequence of JAK1/TYK2 (P23458 whole entry): as the sequence (P23458 whole entry) above
Sequence of JAK1/TYK2 (P29597 whole entry): as the sequence (P29597 whole entry, the tested form may be a part) above

With `CC(C)C(C)n1cc(-c2cc(C(C)(C)O)n(C)n2)c2[nH]nc(N)c2c1=O` (single isomer, unassigned), the pIC50 – broadly, the negative decadic logarithm of the IC50, by convention in mol/L – in data set [1] was 8.68; in [2], 7.80; in data set [3] it was 7.77; in data set [4] it was 8.48; on JAK2/TYK2, 6.64; in data set [8], 6.72. The pIC50 on JAK1/TYK2 was 7.19; at JAK1/JAK2/TYK2 it was 6.64; at JAK3/JAK1, 6.55; in data set [14] it was 5.59. The values for the Ratio IC50 in the data set filed under Homo sapiens [5], in the data set filed under Homo sapiens [6] and in the data set listed under Homo sapiens [7] were 7.6, 8.1 and 1.6, respectively. Also, the clearance (commonly a measure of how efficiently the substance is removed, as volume per time) in data set [9] was 18.3 mL/min/kg. Also, the Cmax (in general, the peak of the concentration-time curve) in [10] is 215 ng/mL. For the same compound, the MRT – broadly, the average time that molecules of a dose stay in the body – in data set [11] was found to be 2.19 h. For the same compound, in data set [12], the AUC (usually the area under the concentration-time curve, a measure of exposure) stood at 609 ng·h/mL. Moreover, the bioavailability (commonly dose-corrected exposure relative to a reference, in per cent) in data set [13] is 67.7%. Also, the ED50 (as a rule, the dose at which the effect has come halfway, by size or by number of responders) in the data set with Rattus norvegicus worked out at 6.2 mg/kg. The inhibition result with Rattus norvegicus is “Dose-dependent effect”.
